Experimental data: ChEMBL document CHEMBL5576052, “Design, synthesis, and biological evaluation of new bis-benzylisoquinoline-based analogues as potential neuromuscular blocking agents” (Bioorg Med Chem Lett, 2024)

How the values were obtained:
Assay type in all cases: functional
[1] = system: Oryctolagus cuniculus; assay: Neuromuscular blocking in rabbit model of propofol-induced anesthesia assessed as maximal blockade at 272.7 nmol/kg by train-of-four response method relative to control
[2] = system: Oryctolagus cuniculus; assay: Neuromuscular blocking in rabbit model of propofol-induced anesthesia assessed as onset time at 272.7 nmol/kg by train-of-four response method
[3] = system: Oryctolagus cuniculus; assay: Neuromuscular blocking in rabbit model of propofol-induced anesthesia assessed as duration of time for maximal blockade at 272.7 nmol/kg by train-of-four response method
[4] = system: Oryctolagus cuniculus; assay: Neuromuscular blocking in rabbit model of propofol-induced anesthesia assessed as effective blocking time by measuring duration from administration to 25 percent recovery at 272.7 nmol/kg by train-of-four response method
[5] = system: Oryctolagus cuniculus; assay: Neuromuscular blocking in rabbit model of propofol-induced anesthesia assessed as time duration of 25 to 75 percent recovery indices at 272.7 nmol/kg by train-of-four response method
[6] = system: Oryctolagus cuniculus; assay: Neuromuscular blocking in rabbit model of propofol-induced anesthesia assessed as time duration of 25 to 90 percent recovery indices at 272.7 nmol/kg by train-of-four response method

| SMILES | Emax at 0.2727 µmol/kg [1] [%] | Time [2] [min] | Time [3] [min] | Time [4] [min] | Time [5] [min] | Time [6] [min] |
| --- | --- | --- | --- | --- | --- | --- |
| COc1cc2c(cc1OC)[C@@H](Cc1cc(OC)c(OC)c(OC)c1)[N+](C)(CCC(=O)OCC(C)(C)COC(=O)CC[N+]1(C)CCc3cc(OC)c(OC)cc3[C@H]1Cc1cc(OC)c(OC)c(OC)c1)CC2 (stereo partly specified) | 0 | – | – | – | – | – |
| COc1cc2c(cc1OC)[C@@H](Cc1cc(OC)c(OC)c(OC)c1)[N+](C)(CCC(=O)OCC(F)(F)COC(=O)CC[N+]1(C)CCc3cc(OC)c(OC)cc3[C@H]1Cc1cc(OC)c(OC)c(OC)c1)CC2 (stereo partly specified) | 0 | – | – | – | – | – |
| C=CC[N+]1(CCCOC(=O)CC/C=C/CCC(=O)OCCC[N+]2(CC=C)CCc3cc(OC)c(OC)cc3[C@H]2Cc2cc(OC)c(OC)c(OC)c2)CCc2cc(OC)c(OC)cc2[C@H]1Cc1cc(OC)c(OC)c(OC)c1 (stereo partly specified) | 92 | – | – | – | – | – |
| COc1cc2c(cc1OC)[C@@H](Cc1cc(OC)c(OC)c(OC)c1)[N+](C)(CCC(=O)OCCCCCCOC(=O)CC[N+]1(C)CCc3cc(OC)c(OC)cc3[C@H]1Cc1cc(OC)c(OC)c(OC)c1)CC2.O=S(=O)([O-])c1ccccc1.O=S(=O)([O-])c1ccccc1 (stereo partly specified) | 100 | 1 | 44.92 | 49.83 | 9.92 | 12.17 |
| COc1cc2c(cc1OC)[C@@H](Cc1cc(OC)c(OC)c(OC)c1)[N+](C)(CCC(=O)OCC#CC#CCOC(=O)CC[N+]1(C)CCc3cc(OC)c(OC)cc3[C@H]1Cc1cc(OC)c(OC)c(OC)c1)CC2.O=S(=O)([O-])c1ccccc1.O=S(=O)([O-])c1ccccc1 (stereo partly specified) | 100 | 1.42 | 4.75 | 5.83 | 6.92 | 12 |
| COc1cc2c(cc1OC)[C@@H](Cc1cc(OC)c(OC)c(OC)c1)[N@@+](C)(CCCOC(=O)CC/C=C/CCC(=O)OCCC[N@@+]1(C)CCc3cc(OC)c(OC)cc3[C@H]1Cc1cc(OC)c(OC)c(OC)c1)CC2 | 0 | – | – | – | – | – |
| COc1cc2c(cc1OC)[C@@H](Cc1cc(OC)c(OC)c(OC)c1)[N+](C)(CCC(=O)OCCCCOC(=O)CC[N+]1(C)CCc3cc(OC)c(OC)cc3[C@H]1Cc1cc(OC)c(OC)c(OC)c1)CC2.O=S(=O)([O-])c1ccccc1.O=S(=O)([O-])c1ccccc1 (stereo partly specified) | 100 | 1.25 | 18.58 | 23.08 | 8.17 | 13.67 |
| COc1cc2c(cc1OC)[C@@H](Cc1cc(OC)c(OC)c(OC)c1)[N+](C)(CCC(=O)OCCCOC(=O)CC[N+]1(C)CCc3cc(OC)c(OC)cc3[C@H]1Cc1cc(OC)c(OC)c(OC)c1)CC2.O=S(=O)([O-])c1ccccc1.O=S(=O)([O-])c1ccccc1 (stereo partly specified) | 100 | 1.08 | 7.58 | 9.75 | 7.92 | 9.83 |
| COc1cc2c(cc1OC)[C@@H](Cc1cc(OC)c(OC)c(OC)c1)[N+](C)(CCCOC(=O)c1ccccc1-c1ccccc1C(=O)OCCC[N+]1(C)CCc3cc(OC)c(OC)cc3[C@H]1Cc1cc(OC)c(OC)c(OC)c1)CC2 (stereo partly specified) | 0 | – | – | – | – | – |
| COc1cc2c(cc1OC)[C@@H](Cc1cc(OC)c(OC)c(OC)c1)[N+](C)(CCC(=O)OCC#CCOC(=O)CC[N+]1(C)CCc3cc(OC)c(OC)cc3[C@H]1Cc1cc(OC)c(OC)c(OC)c1)CC2 (stereo partly specified) | 85 | – | – | – | – | – |
| COc1cc2c(cc1OC)[C@@H](Cc1cc(OC)c(OC)c(OC)c1)[N@+](CCCOC(=O)CC/C=C/CCC(=O)OCCC[N@@+]1(CC3CC3)CCc3cc(OC)c(OC)cc3[C@H]1Cc1cc(OC)c(OC)c(OC)c1)(CC1CC1)CC2.[Cl-].[Cl-] | 45 | 2 | 2.5 | – | 5 | 7.87 |
| COc1cc2c(cc1OC)[C@@H](Cc1cc(OC)c(OC)c(OC)c1)[N+](C)(CCC(=O)OC/C(Br)=C(\Br)COC(=O)CC[N+]1(C)CCc3cc(OC)c(OC)cc3[C@H]1Cc1cc(OC)c(OC)c(OC)c1)CC2.O=S(=O)([O-])c1ccccc1.O=S(=O)([O-])c1ccccc1 (stereo partly specified) | 100 | 1 | 8.75 | 9.75 | 6.83 | 10.92 |
